Reference: patent US20090074766A1, “Methods of inhibiting HIV-2 infection” (priority 2007, published 2009)
“And” between values parts separate entries of the source, which are not always exact repeats. Identical values can stand only once. Like-named read-outs stand apart in the source and are kept apart here.

B1: PRO 140: humanized IgG4,κ anti-CCR5 monoclonal antibody, humanized version of murine mAb PA14 (antibody, chains of the INN, looked up, V domains shown)
VH: EVQLVESGGGLVKPGGSLRLSCAASGYTFSNYWIGWVRQAPGKGLEWIGDIYPGGNYIRNNEKFKDKTTLSADTSKNTAYLQMNSLKTEDTAVYYCGSSFGSNYVFAWFTYWGQGTLVTVSS
VL: DIVMTQSPLSLPVTPGEPASISCRSSQRLLSSYGHTYLHWYLQKPGQSPQLLIYEVSNRFSGVPDRFSGSGSGTDFTLKISRVEAEDVGVYYCSQSTHVPLTFGQGTKVEIK

Experiments:
[1] = test system: HIV-1JR-FL envelope-mediated membrane fusion (HeLa-EnvJRFL and CEM NKR-CCR5 cells); test: cell-based; parameters: CI90: unit not given beside the values
Description: (§1) The HIV-1 RET assay has been described in detail previously (Litwin et al., 1996). Briefly, fluorescein octadecyl ester (F18; Molecular Probes, Eugene, Oreg.; 5 mg/ml in ethanol), was diluted 1:800 in DMEM labeling medium (DMEM; Invitrogen, Carlsbad, Calif.) with 10% fetal bovine serum (FBS; HyClone, Logan, Utah) and adjusted to an A506 of 0.34±10%. Octadecyl rhodamine B chloride (R18; Molecular Probes; 10 mg/ml in ethanol) was diluted 1:2050 in labeling medium and adjusted to an A565 of 0.52±10%. Both dyes were further diluted 2-fold by addition to cells in T75-cm^2 flasks. HeLa-EnvJRFL and CEM NKR-CCR5 cells were incubated overnight in F18- and R18-containing culture medium, respectively. The following day, medium from HeLa-EnvJRFL cells was removed and 10 ml of 0.5 mM EDTA was added and incubated at 37° C. for 5 min. EDTA was removed and the flask was returned to the incubator for another 5 min followed by striking of the flask to dislodge cells. […] Suspension CEM NKR-CCR5 cells were added directly to a separate 50-ml conical centrifuge tube. Both cell lines were centrifuged at 300×g for 5 min. The supernatant was discarded and cells were resuspended in 10 ml of PBS-/15% FBS. The centrifugation/wash step was repeated twice, after which the cells were counted and concentrations adjusted to 1.5×10^6 cells/ml. Ten μl of each cell type (15,000 cells) were seeded into wells of a 384-well plate. Inhibitor compounds were added immediately thereafter to bring the final well volume to 40 μl, and the plates were incubated for 4 h at 37° C. Compounds were tested individually and in combination at a fixed molar ratio or mass ratio over a range of serial dilutions. The plates were then read on a fluorescence plate reader (Victor^2, Perkin Elmer, Boston, Mass.) using the excitation/emission filter combinations shown in Table 6.
(§2) The “% RET” was calculated according to the following formula after subtraction of background (blank) readings: […]
(§3) The “% Inhibition” was calculated according to the following formula: […]
(§4) Fifty percent inhibition (IC50) values were determined by fitting the inhibition data with a non-linear, four-parameter, variable slope equation (GraphPad Prism, 4.02; GraphPad Software, San Diego, Calif.). Upper and lower inhibition values were constrained to 100% and 0%, respectively for curve fitting.
(§5) For testing, small molecule compounds were solubilized in dimethylsulfoxide (DMSO) to 10 mM and then diluted in DMSO to 200× the final concentration to be utilized in the antiviral assay. Serial dilutions of small molecules were conducted in DMSO. Subsequent dilutions were conducted in medium to achieve a final DMSO concentration in the assay of 0.5%. Peptides and mAbs were diluted in PBS in the absence of DMSO.
(§6) HeLa cells were engineered to express HIV-1 gp120/gp41 from the macrophage-tropic primary isolate JRFL as described (HeLa-EnvJRFL; Litwin et al., 1996). Briefly, the HIV-1LAI Env gene was excised from the plasmid pMA243 (Dragic et al., 1992) and the HIV-1JRFL Env gene was inserted. The HIV-1JRFL Env gene was amplified from the plasmid pUCFL112-1 (Koyanagi et al., 1987). The resulting plasmid, designated JR-FL-pMA243, was sequenced by standard methods and transfected into HeLa cells using lipofectin (Gibco BRL/Invitrogen, Carlsbad, Calif.). HeLa-EnvJRFL transfectants were selected in methotrexate (Sigma, St. Louis, Mo.) and cloned twice by limiting dilution. The transduced human T cell leukemia line CEM NKR-CCR5 cells were obtained from the NIH AIDS Research and Reference Program (Cat. No. 458).
(§7) The HIV-1 RET assay has been described in detail previously (Litwin et al., 1996). Briefly, fluorescein octadecyl ester (F18; Molecular Probes, Eugene, Oreg.; 5 mg/ml in ethanol), was diluted 1:800 in DMEM labeling medium (DMEM; Invitrogen, Carlsbad, Calif.) with 10% fetal bovine serum (FBS; HyClone, Logan, Utah) and adjusted to an A506 of 0.34±10%.

[2] = molecular target: HIV-1JR-FL envelope-mediated membrane fusion (HeLa-EnvJRFL and CEM NKR-CCR5 cells) (Homo sapiens, UniProt P51681); test: cell-based; parameters: CI90: unit not given beside the values; settings: for Mean Dose Reduction (2D7) / Mean Dose Reduction (Cpd in combination): 2D7 in combination with the labelled inhibitor, 1:1 molar ratio
HIV-1JR-FL envelope-mediated membrane fusion (HeLa-EnvJRFL and CEM NKR-CCR5 cells) (Homo sapiens, UniProt P51681), sequence (P51681 whole entry, the tested form may be a part): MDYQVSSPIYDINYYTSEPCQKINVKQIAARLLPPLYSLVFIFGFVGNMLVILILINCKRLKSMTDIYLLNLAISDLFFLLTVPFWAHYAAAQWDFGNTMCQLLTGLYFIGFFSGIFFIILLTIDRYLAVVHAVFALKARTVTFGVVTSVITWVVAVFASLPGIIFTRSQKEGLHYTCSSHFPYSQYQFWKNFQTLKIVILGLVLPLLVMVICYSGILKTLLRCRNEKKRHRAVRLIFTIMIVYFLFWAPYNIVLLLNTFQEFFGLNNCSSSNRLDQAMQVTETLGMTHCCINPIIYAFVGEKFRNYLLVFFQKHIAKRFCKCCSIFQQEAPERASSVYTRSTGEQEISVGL
Description: as §1, §2, §3, §4, §5, §6, §7

[3] = molecular target: T1, CCR5 (Homo sapiens, UniProt P51681); test: Competition binding: inhibition of PRO 140-PE binding to CEM.NKR-CCR5 cells (flow cytometry)
T1 construct: host or cells: CEM.NKR-CCR5 (transduced human T cell leukemia line)
T1 sequence (P51681 whole entry): as the sequence (P51681 whole entry, the tested form may be a part) above
Description: Inhibition was assessed on the basis of both MFI (A) and percent cells gated (B).
Azide was added to block CCR5 internalization during the assay.

[4] = test system: HIV-1 CC 1/85; test: Previous studies (300-TD-028): HIV-1 replication in PBMC quantitated by p24 ELISA, CC 1/85; assay type: cell-based
Description: The EC values were measured by p24 ELISA in previous studies, according to published methods. Because the p24 ELISA cannot efficiently quantitate p24 from the HIV-2 isolates used in this study, a commercial ELISA that measures reverse transcriptase was chosen as a readout for both the HIV-2 and HIV-1 infection assays in the present study.

[5] = test system: CCR5 chemokine signaling; test: RANTES-induced calcium mobilization in L1.2-CCR5 cells vs HIV-1JR-FL replication in PBMC (FIG. 4); assay type: cell-based, human; settings: FIG. 4 legend, result in words
Description: Similar results were obtained for MIP-1α and MIP-1β.

[6] = molecular target: T1, CCR5; test: Competition binding: inhibition of 3H-UK-427,857 binding to CEM.NKR-CCR5 cells; settings: read-out: EC50 for inhibition of 3H-UK-427,857 binding; 2 nM 3H-UK-427,857, pre-incubation with unlabeled compound
Description: Cells were washed and then analyzed for radioactivity by scintillation counting.
The cells were washed in PBSA and lysed with 0.5N HCl prior to scintillation counting using a Wallac1410 instrument.

[7] = PRO 140 in combination with the labelled inhibitor, 1:1 molar ratio
[8] = molar ratio PRO 140 to labelled inhibitor 1:5
[9] = molar ratio PRO 140 to labelled inhibitor 5:1
[10] = inhibitor tested individually, experiment depicted in FIG. 11A
[11] = inhibitor tested individually, experiment depicted in FIG. 11B
[12] = labelled 1st inhibitor with 2nd inhibitor UK-427,857, equimolar
[13] = SCH-D (Drug 1) with TAK-779 (Drug 2), molar ratio 1:1
[14] = labelled 1st inhibitor with 2nd inhibitor PRO 140, equimolar, mean ± SD of 4-12 assays
[15] = individual assays (Source), previous study, p24 ELISA
[16] = previous studies n = 24, median

Molecule | Mean Dose Reduction (Cpd in combination) [1, 7] | Mean Dose Reduction (PRO 140) [1, 7] | Mean Dose Reduction (Cpd. in combination) [1, 8] | Mean Dose Reduction (PRO 140) [1, 8] | Mean Dose Reduction (Cpd. in combination) [1, 9] | Mean Dose Reduction (PRO 140) [1, 9] | IC90 [2, 10] [nM] | IC90 [2, 11] [nM] | Mean Dose Reduction (2D7) [2] | Mean Dose Reduction (Cpd in combination) [2] | further results
Cc1nnc(C(C)C)n1C1CC2CCC(C1)N2CC[C@H](NC(=O)C1CCC(F)(F)CC1)c1ccccc1 (stereo partly shown) [UK-427,857] | 2.98 ± 0.65 | 4.16 ± 0.41 | 1.58 ± 0.17 | 11.31 ± 2.14 | 7.25 ± 2.19 | 2.00 ± 0.35 | 21 | 59 |  |  | IC90 ([2]; read-out: IC90 of the combination, 1:1 fixed molar ratio combination of PRO 140 and UK-427,857, FIG. 11A): 4.6 nM
COC[C@@H](c1ccc(C(F)(F)F)cc1)N1CCN(C2(C)CCN(C(=O)c3c(C)ncnc3C)CC2)C[C@@H]1C [SCH-D, 1-[(4,6-dimethyl-5-pyrimidinyl)carbonyl]-4-[4-[2-methoxy-1(R)-4-(trifluoromethyl)phenyl]ethyl-3(S)-methyl-1-piperazinyl]-4-methylpiperidine] | 3.90 ± 0.71 | 4.21 ± 0.96 | 1.73 ± 0.19 | 9.95 ± 2.03 | 8.44 ± 1.27 | 1.92 ± 0.40 |  | 34 | 3.25 ± 0.56 | 4.04 ± 0.78 | percent of cells gated for positive binding of PRO 140-PE ([3]; result in words (FIG. 12B)): little impact; IC50 ([1]; 1st inhibitor alone (Table 13)): 3.2 nM; IC90 ([1]; 1st inhibitor alone (Table 13)): 16 nM; CI50 ([1]; labelled 1st inhibitor with 2nd inhibitor TAK-779, equimolar): 1.3 ± 0.18; CI50 [1, 12]: 0.86 ± 0.03; CI90 [1, 12]: 0.75 ± 0.02; Mean CI ± stdev [2, 13]: 1.12±0.32; Mean DR (Drug 1) [2, 13]: 1.48 ± 0.96; CI90 ([2]; SCH-D and UK-427,857 1:1, experiment depicted in FIG. 11B): 0.73; IC90 ([2]; read-out: IC90 of the combination, 1:1 fixed molar ratio combination of SCH-D and UK-427,857, FIG. 11B): 31 nM
COc1ccnc2[nH]cc(C(=O)C(=O)N3CCN(C(=O)c4ccccc4)C[C@H]3C)c12 [BMS-378806, (R)-N-(benzoyl)-3-methyl-N′-[(4-methoxy-7-azaindol-3-yl)-oxoacetyl]-piperazine] | 2.85 ± 0.76 | 1.64 ± 0.30 | 1.07 ± 0.31 | 3.64 ± 0.73 | 8.88 ± 4.16 | 1.14 ± 0.06 |  |  |  |  | Mean CI (Combination Index at IC50) [1, 7]: 1.21±0.21; Mean Combination Index (at IC50) ([1]; PRO 140 in combination with the labelled inhibitor, molar ratio PRO 140 to inhibitor 1:5): 1.55 ± 0.24; Mean Combination Index (at IC50) ([1]; PRO 140 in combination with the labelled inhibitor, molar ratio PRO 140 to inhibitor 5:1): 1.12 ± 0.10; CI90 [1, 14]: 1.1 ± 0.22
B1 |  |  |  |  |  |  | 11 |  | 2.54 ± 0.13 | 1.87 ± 0.07 | EC50 [4, 15]: 1.1 µg/mL and 0.004 µg/mL and 1.4 µg/mL and 0.16 µg/mL and 2.1 µg/mL and 0.006 µg/mL and <0.001 µg/mL and 0.001 µg/mL and 0.01 µg/mL and 4.5 µg/mL and 0.7 µg/mL and 0.96 µg/mL and 0.67 µg/mL and 0.58 µg/mL and 5.4 µg/mL and 4.6 µg/mL and 0.04 µg/mL and 0.85 µg/mL and 7.8 µg/mL and 5.1 µg/mL and 2.7 µg/mL and 0.08 µg/mL and 0.1 µg/mL; EC90 [4, 15]: 13 µg/mL and 0.34 µg/mL and 4.2 µg/mL and 3.6 µg/mL and 9.6 µg/mL and 0.22 µg/mL and <0.001 µg/mL and 0.01 µg/mL and 0.03 µg/mL and 1.1 µg/mL and >50 µg/mL and 4.9 µg/mL and 8.1 µg/mL and 24 µg/mL and 33 µg/mL and 7.3 µg/mL and 8.2 µg/mL and 0.88 µg/mL and 3.4 µg/mL; EC50 (mean) ([4]; previous studies n = 24, mean): <1.6 µg/mL; EC90 (mean) ([4]; previous studies n = 24, mean): >12 µg/mL; EC50 (median) [4, 16]: 0.69 µg/mL; EC90 (median) [4, 16]: 4.9 µg/mL; EC90 ([3]; based on percent cells gated, 5 nM PRO 140-PE): 17 nM; effect on HIV-1 vs chemokine signaling [5]: blocks HIV-1 but not chemokine signaling; EC50 [6]: 14 nM; IC50 [2, 10]: 2.9 nM; CI50 [2, 14]: 0.96
